Results taken from patent US12139526B2, “Modified chimeric receptors and related compositions and methods” (Juno Therapeutics, Inc., priority 2015, dated 2024).

B1: K28L: variant anti-CD19 CAR / junction region with K28L, numbering SEQ ID NO:5 (protein)
chain: FWVLVVVGGVLACYSLLVTVAFIIFWVLRGRKKLLYIFKQPFMRPVQTTQEEDGCSCRFPEEEEGGCEL
modifications: CD28-4-1BB

Legend:
Test in all cases: REVEAL Epitope Discovery System in vitro MHC-peptide binding score
[1] = target: HLA-A*02:01 (Homo sapiens, UniProt P04439, D140Y/D185E/D98H/E176V/E277Q/G131W/G231S/I119V/I121R/I166T/I218V/L300P/L318F/N151K/N90K/P208A/P217A/Q86G/Q94H/R138H/R169H/T345S); conditions: for A*02:01 In Vitro Score: REVEAL score, positive control peptide set at 100%, greater than 50 = good or high affinity binding
Method: (§1) Actual binding affinities for certain HLA class I alleles (A*02:01, A*03:01. A*11:01, and B*08:01) were assessed in vitro for exemplary overlapping 9 amino acid peptide sequences within a portion of the 26 amino acid junction region spanning the CD28 and 4-1BB junction. Specifically, assessment was of a series of overlapping 9-mer peptides derived from the sequence […] (set forth in SEQ ID NO: 7), which contains a portion of the CD28 transmembrane domain and 4-1BB costimulatory domain spanning the junction between the domains (bond joining the two amino acids noted in underline). In addition, a series of overlapping 9-mer peptides of each of a number of different variants of this portion also were assessed, each variant containing a mutation or mutations in this region as described in Example 2.
(§2) The various 9-mer overlapping peptides were synthesized and their purity tested by MALDI-TOF Mass Spectrometry. The synthetic peptides were then incubated with recombinant MHC molecules to assess binding properties using the REVEAL Epitope Discovery System, which is a high-throughput binding assay that measures the degree to which each peptide is able to stabilize a ternary MHC-peptide complex (ProImmune, Oxford, United Kingdom). Each peptide was separately tested for this ability with respect to each of the HLA class I alleles, normalized to the degree observed for a positive control (known T cell epitope for the relevant allele). The results are reported as a score, in which the binding was normalized to the positive control peptide set at 100%.

[2] = target: HLA-A*03:01 (Homo sapiens, UniProt P04439); conditions: positive control peptide set at 100%, greater than 50 = good or high affinity binding
Method: as §1, §2

[3] = target: HLA-B*08:01 (Homo sapiens, UniProt P01889, A93T/A95T/D138N/E176V/E187T/K202T/Q94N/R180D/S35A/V36M/Y33D/Y91F); design: key: % binding, normalized to positive control peptide set at 100%; conditions: binding normalized to positive control peptide set at 100%, greater than 50 considered good or high affinity binding
Method: as §1, §2

[4] = target: HLA-A*11:01 (Homo sapiens, UniProt P04439, A114D/D185E/E176A/F33Y/L180Q/S129P/T187R); design: key: % binding, normalized to positive control peptide set at 100%; conditions: binding normalized to positive control peptide set at 100%, greater than 50 considered good or high affinity binding
Method: as §1, §2

Row | Molecule | A*02:01 In Vitro Score [1] | A*03:01 In Vitro [2] | B*08:01 In Vitro Score [3] | A*11:01 In Vitro Score [4] | predicted or actual binding affinity or score for HLA class I ([1]; for at least one HLA allele (A*02:01, A*03:01, A*11:01, B*08:01) and/or at least one peptide, in silico or in vitro)
1 | IIFWVHRGR [9-mer variant junction peptide, K28H] | 4.70 | 30.10 | 0.20 | 77.50 | –
2 | FWVARGRKK [9-mer variant junction peptide, K28A] | – | – | – | 8.90 | –
3 | IFWVKRGNK [9-mer variant junction peptide, R31N] | 3.50 | 8.00 | 0.10 | 45.90 | –
4 | WVQRGRKKL [9-mer variant junction peptide, K28Q] | 8.10 | 4.90 | 45.10 | 12.80 | –
5 | IFWVKRGAK [9-mer variant junction peptide, R31A] | 13.80 | 22.00 | 2.20 | 69.70 | –
6 | IIFWVKRGN [9-mer variant junction peptide, R31N] | 9.30 | 4.30 | 0.90 | 42.10 | –
7 | IIFWVQRGR [9-mer variant junction peptide, K28Q] | 5.80 | 18.00 | 0.10 | 72.80 | –
8 | WVKRGAKKL [9-mer variant junction peptide, R31A] | 4.70 | 4.10 | 34.10 | 4.60 | –
9 | AFIIFWVAR [9-mer variant junction peptide, K28A] | 2.20 | 0.50 | 0.20 | 51.80 | –
10 | IFWVQRGRK [9-mer variant junction peptide, K28Q] | 6.10 | 36.70 | 0.00 | 128.50 | –
11 | FWVKRGNKK [9-mer variant junction peptide, R31N] | 8.70 | – | – | – | –
12 | IIFWVQRGA [9-mer variant junction peptide, K28Q/R31A] | 95.30 | 2.70 | 0.20 | 56.50 | –
13 | VAFIIFWVR [9-mer variant junction peptide, K28R] | 1.20 | 0.70 | 0.10 | 34.60 | –
14 | IFWVKRGLK [9-mer variant junction peptide, R31L] | 2.40 | 26.90 | 58.30 | 61.10 | –
15 | FWVKRGLKK [9-mer variant junction peptide, R31L] | 9.40 | – | 6.30 | – | –
16 | WVARGRKKL [9-mer variant junction peptide, K28A] | 8.80 | 1.30 | 32.40 | 13.80 | –
17 | WVKRGHKKL [9-mer variant junction peptide, R31H] | 3.90 | 1.40 | 47.60 | 2.80 | –
18 | WVQRGNKKS [9-mer variant junction peptide, mutation printed K28Q/L34S] | – | – | – | 5.00 | –
19 | WVKRGSKKL [9-mer variant junction peptide, R31S] | 3.00 | 1.90 | 56.10 | 11.80 | –
20 | IIFWVLRGR [9-mer variant junction peptide, K28L] | 8.40 | 2.80 | 0.40 | 35.20 | –

Row | Molecule | A*02:01 In Vitro Score [1] | A*03:01 In Vitro [2] | B*08:01 In Vitro Score [3] | A*11:01 In Vitro Score [4] | predicted or actual binding affinity or score for HLA class I ([1]; for at least one HLA allele (A*02:01, A*03:01, A*11:01, B*08:01) and/or at least one peptide, in silico or in vitro)
21 | IFWVQRGAK [9-mer variant junction peptide, K28Q/R31A] | 11.70 | 17.00 | 0.20 | 61.30 | –
22 | IFWVKRGHK [9-mer variant junction peptide, R31H] | 2.20 | 9.00 | 3.20 | 30.90 | –
23 | IFWVARGRK [9-mer variant junction peptide, K28A] | 1.00 | 53.70 | 0.00 | 34.90 | –
24 | IIFWVKRGL [9-mer variant junction peptide, R31L] | 82.20 | 15.90 | 1.70 | 32.40 | –
25 | WVQRGNKKL [9-mer variant junction peptide, K28Q/R31N] | 4.30 | 1.50 | 32.00 | 10.70 | –
26 | IIFWVSRGR [9-mer variant junction peptide, K28S] | 2.60 | 25.30 | 0.00 | 68.90 | –
27 | IIFWVARGR [9-mer variant junction peptide, K28A] | 9.60 | 18.60 | 0.30 | 70.60 | –
28 | IIFWVKRGA [9-mer variant junction peptide, R31A] | 85.90 | 42.90 | 0.90 | 22.60 | –
29 | VAFIIFWVK [9-mer of CD28/4-1BB junction region, mutation none] | 0.70 | 1.50 | 0.30 | 109.20 | –
30 | IFWVKRGSK [9-mer variant junction peptide, R31S] | 2.40 | 10.40 | 1.20 | 47.90 | –
31 | IIFWVKRGS [9-mer variant junction peptide, R31S] | 13.60 | 16.20 | 0.40 | 100.00 | –
32 | AFIIFWVSR [9-mer variant junction peptide, K28S] | 4.50 | 0.30 | 0.30 | 54.00 | –
33 | FIIFWVHRG [9-mer variant junction peptide, K28H] | 37.30 | 0.00 | 0.20 | 0.90 | –
34 | IFWVHRGRK [9-mer variant junction peptide, K28H] | 7.10 | 37.80 | 0.10 | 36.60 | –
35 | AFIIFWVHR [9-mer variant junction peptide, K28H] | 0.30 | 0.30 | 0.30 | 34.90 | –
36 | WVKRGNKKL [9-mer variant junction peptide, R31N] | 2.40 | 0.90 | 65.90 | 4.10 | –
37 | IFWVQRGNK [9-mer variant junction peptide, K28Q/R31N] | 16.10 | 23.20 | 0.10 | 67.50 | –
38 | VAFIIFWVS [9-mer variant junction peptide, K28S] | 70.60 | 0.70 | 0.10 | 25.10 | –
39 | B1 | – | – | – | – | reduced predicted or actual binding affinity or score
